A word on the IC50: it is the midpoint of a concentration-inhibition curve.

Among the data in patent US20110039893A1, “GSK-3BETA INHIBITOR” (Takeda Pharmaceutical Company Limited, priority 2006, published 2011) are IC50 values, retold here.

In this assay the target is T1, recombinant GSK-3β enzyme (Homo sapiens, UniProt P49841).
T1 construct: FLAG (N); made in house; host or cells: Sf-21 insect cells, recombinant baculovirus (pFASTBAC1, BAC-TO-BAC)
T1 sequence (P49841 whole entry): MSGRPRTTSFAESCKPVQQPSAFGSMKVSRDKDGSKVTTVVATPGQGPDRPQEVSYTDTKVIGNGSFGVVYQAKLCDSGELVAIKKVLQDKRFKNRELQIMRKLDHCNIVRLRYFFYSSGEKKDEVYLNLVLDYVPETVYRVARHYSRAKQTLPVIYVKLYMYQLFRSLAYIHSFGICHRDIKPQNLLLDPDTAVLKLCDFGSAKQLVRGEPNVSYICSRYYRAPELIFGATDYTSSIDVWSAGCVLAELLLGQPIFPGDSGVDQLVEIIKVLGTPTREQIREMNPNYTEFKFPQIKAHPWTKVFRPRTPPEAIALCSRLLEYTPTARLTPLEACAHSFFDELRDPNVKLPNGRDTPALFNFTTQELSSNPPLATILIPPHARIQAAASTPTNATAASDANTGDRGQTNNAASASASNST
Put plainly: GSK-3β inhibitory activity evaluation (Kinase Glo luminescence, recombinant enzyme). The assay is classed as biochemical. The note with it: recombinant human GSK-3β 100 ng, glycogen synthase-derived substrate peptide, 2.5 μM ATP solution, 30 min room temperature. As for the experimental part: Human GSK-3β gene was cloned by PCR using human brain cDNA (Clontech; trade name: QUICK-Clone cDNA) as a template and a primer set (GSK3β-U: 5′-[…] CTT-3′ (SEQ ID NO: 1) and GSK3β-L: 5′-[…]-3′ (SEQ ID NO: 2)) prepared by reference to the base sequence of GSK-3β gene registered under an accession No. NM_002093 in the GenBank.
PCR was performed according to the protocol attached to KOD plus DNA polymerase (TOYOBO CO., LTD.). The obtained PCR product was subjected to agarose gel (1%) electrophoresis, and DNA fragment (1.2 kb) containing GSK-3β gene was recovered from the gel, and digested with restriction enzymes EcoR I and Sal I. DNA after treatment with restriction enzymes was subjected to agarose gel (1%) electrophoresis, and the obtained DNA fragment was recovered, and ligated to plasmid pFASTBAC1 (Invitrogen) digested with restriction enzymes EcoR I and Sal I to give expression plasmid pFB-GSK3β. The base sequence of the inserted fragment was confirmed to match the object sequence. Using BAC-TO-BAC Baculovirus Expression System (Invitrogen), virus stock BAC-GSK3β of recombinant Baculovirus was prepared.
Sf-21 cells (Invitrogen) were inoculated to 150 ml Sf-900 II SEM medium (Invitrogen) containing 10% fetal bovine serum to 1×10^6 cells/ml and cultured at 27° C. for 24 hr. To the obtained culture medium was added the virus stock BAC-GSK3β of recombinant Baculovirus obtained above by 150 μl each, and the cells were further cultured for 60 hr. The culture medium was centrifuged (3000 rpm, 10 min) to separate the cells, and the cells were washed once with PBS. The cells were suspended in 10 ml of cell lysis buffer (25 mM HEPES (pH 7.5), 1% Triton X, 130 mM sodium chloride, 1 mM EDTA, 1 mM Dithiothreitol, 25 mM β-glycerophosphate, Protease inhibitor Complete (Boehringer), 1 mM sodium orthovanadate), treated 4 times in a homogenizer (POLYTRON) at 20000 rpm, 30 sec to disrupt the cells. The cell disrupt solution was centrifuged (40000 rpm, 45 min), and GSK-3β was purified from the obtained supernatant using Anti-FLAG M2 Affinity Gel (Sigma Ltd.).
To 37.5 μl of a reaction solution (25 mM HEPES (pH 7.5), 10 mM magnesium acetate, 1 mM DTT, 0.01% bovine serum albumin (Wako Pure Chemical Industries, Ltd.)) containing recombinant GSK-3β enzyme (100 ng) obtained above and substrate peptide ([…]pSEDEEE (SEQ ID NO: 3), pS is phosphorylated serine) (100 ng) derived from glycogen synthase was added a test compound (2.5 μl) dissolved in DMSO, and the mixture was incubated at room temperature for 5 min. To the obtained mixture was added ATP solution (2.5 μM ATP, 10 μl), and the mixture was reacted at room temperature for 30 min. After the reaction, the reaction was quenched by adding 50 μL of Kinase Glo Reagent (Promega) to the reaction solution. After reaction at room temperature for 10 min, the luminescence amount was measured using an ARVO multilabel counter (PerkinElmer Life Sciences). The concentration of the test compound necessary for inhibiting the luminescence amount by 50% (IC50 value) was calculated by PRISM 3.0 (Graphpad software).
As for `O=C(NCc1ccccn1)Nc1cc(N2CC(c3ccccc3)CC2=O)ccn1` (single isomer, unassigned; (-)) [Example 5, (−)-N-(4-(2-oxo-4-phenylpyrrolidin-1-yl)pyridin-2-yl)-N′-(pyridin-2-ylmethyl)urea], the IC50 is below 100 nM.
With `O=C(NCc1ccccn1)Nc1cc(N2CC(c3ccccc3)CC2=O)ccn1` (stereo not drawn) [Example 4, N-(4-(2-oxo-4-phenylpyrrolidin-1-yl)pyridin-2-yl)-N′-(pyridin-2-ylmethyl)urea] the figure was below 100 nM; with `O=C(NCc1cccnc1)Nc1cc(N2CC(c3ccccc3)CC2=O)ccn1` (stereo not drawn) [Example 7, N-(4-(2-oxo-4-phenylpyrrolidin-1-yl)pyridin-2-yl)-N′-(pyridin-3-ylmethyl)urea], 190 nM; with `O=C(NCc1ccc2c(c1)OCO2)Nc1cc(N2CC(c3ccccc3)CC2=O)ccn1` (stereo not drawn) [Example 13, N-(1,3-benzodioxol-5-ylmethyl)-N′-(4-(2-oxo-4-phenylpyrrolidin-1-yl)pyridin-2-yl)urea], 280 nM.
The result for `COc1ccc(C2CC(=O)N(c3ccnc(NC(=O)NCc4ccccn4)c3)C2)cc1` (stereo not drawn) [Example 21, N-(4-(4-(4-methoxyphenyl)-2-oxopyrrolidin-1-yl)pyridin-2-yl)-N′-(pyridin-2-ylmethyl)urea] reads 120 nM.
The result for `O=C(NCc1ccccn1)Nc1cc(N2CC(c3cccc(C(F)(F)F)c3)CC2=O)ccn1` (stereo not drawn) [Example 25, N-(4-(2-oxo-4-(3-(trifluoromethyl)phenyl)pyrrolidin-1-yl)pyridin-2-yl)-N′-(pyridin-2-ylmethyl)urea] reads 100 nM.
Consider `O=C(NCc1ccccn1)Nc1cc(N2CC(c3cccc(F)c3)CC2=O)ccn1` (stereo not drawn) [Example 29, N-(4-(4-(3-fluorophenyl)-2-oxopyrrolidin-1-yl)pyridin-2-yl)-N′-(pyridin-2-ylmethyl)urea], for which the half-maximal inhibitory concentration (IC50) was 100 nM.
For the molecule `O=C(NCc1ccccn1)Nc1cc(N2CC(Cc3ccccc3)CC2=O)ccn1` (stereo not drawn) [Example 34, N-(4-(4-benzyl-2-oxopyrrolidin-1-yl)pyridin-2-yl)-N′-((pyridin-2-yl)methyl)urea], the IC50 was below 100 nM.
Take `O=C(NCc1ccccn1)Nc1cc(N2CC(CCc3ccccc3)CC2=O)ccn1` (stereo not drawn) [Example 37, N-(4-(2-oxo-4-(2-phenylethyl)pyrrolidin-1-yl)pyridin-2-yl)-N′-(pyridin-2-ylmethyl)urea]: the IC50 was below 100 nM.
The result for `O=C(NCc1ccccn1)Nc1cc(N2CC(c3ccccc3)OC2=O)ccn1` (stereo not drawn) [Example 42, N-(4-(2-oxo-5-phenyl-1,3-oxazolidin-3-yl)pyridin-2-yl)-N′-(pyridin-2-ylmethyl)urea] reads below 100 nM; that for `O=C(NCc1ccccn1)Nc1cc(N2CC(Cc3ccccc3)OC2=O)ccn1` (stereo not drawn) [Example 43, N-(4-(5-benzyl-2-oxo-1,3-oxazolidin-3-yl)pyridin-2-yl)-N′-(pyridin-2-ylmethyl)urea], below 100 nM; that for `O=C(NCc1ccccn1)Nc1cc(N2CC(CCc3ccccc3)OC2=O)ccn1` (stereo not drawn) [Example 44, N-(4-(2-oxo-5-(2-phenylethyl)-1,3-oxazolidin-3-yl)pyridin-2-yl)-N′-(pyridin-2-ylmethyl)urea], below 100 nM.
Regarding `O=C(NCc1ccccn1)Nc1cc(N2CC(COc3ccccc3)OC2=O)ccn1` (stereo not drawn) [Example 45, N-(4-(2-oxo-5-(phenoxymethyl)-1,3-oxazolidin-3-yl)pyridin-2-yl)-N′-(pyridin-2-ylmethyl)urea], the IC50 is below 100 nM.
With `O=C(NCc1ccccn1)Nc1cc(N2CC(COCc3ccccc3)OC2=O)ccn1` (stereo not drawn) [Example 46, N-(4-(5-((benzyloxy)methyl)-2-oxo-1,3-oxazolidin-3-yl)pyridin-2-yl)-N′-(pyridin-2-ylmethyl)urea] the figure was below 100 nM; with `O=C(NCc1ccccn1)Nc1cc(-n2cc(-c3ccccc3)oc2=O)ccn1` [Example 47, N-(4-(2-oxo-5-phenyl-1,3-oxazol-3(2H)-yl)pyridin-2-yl)-N′-(pyridin-2-ylmethyl)urea], below 100 nM; with `O=C(NCc1ccccn1)Nc1cc(N2CC(c3cccs3)OC2=O)ccn1` (stereo not drawn) [Example 48, N-(4-(2-oxo-5-(2-thienyl)-1,3-oxazolidin-3-yl)pyridin-2-yl)-N′-(pyridin-2-ylmethyl)urea], below 100 nM.
With `CC1(c2ccccc2)CN(c2ccnc(NC(=O)NCc3ccccn3)c2)C(=O)O1` (stereo not drawn) [Example 49, N-(4-(5-methyl-2-oxo-5-phenyl-1,3-oxazolidin-3-yl)pyridin-2-yl)-N′-(pyridin-2-ylmethyl)urea] the figure was below 100 nM; with `CC1CCN(c2ccnc(NC(=O)NCc3ccccn3)c2)C1=O` (stereo not drawn) [Example 51, N-(4-(3-methyl-2-oxopyrrolidin-1-yl)pyridin-2-yl)-N′-((pyridin-2-yl)methyl)urea], below 100 nM.
Regarding `CC1CCC(=O)N1c1ccnc(NC(=O)NCc2ccccn2)c1` (stereo not drawn) [Example 53, N-(4-(2-methyl-5-oxopyrrolidin-1-yl)pyridin-2-yl)-N′-((pyridin-2-yl)methyl)urea], the IC50 came out at 100 nM.
The result for `O=C(NCc1ccccn1)Nc1cc(N2CC3(CCCCC3)CC2=O)ccn1` [Example 54, N-(4-(3-oxo-2-azaspiro[4.5]dec-2-yl)pyridin-2-yl)-N′-(pyridin-2-ylmethyl)urea] reads below 100 nM; that for `CC1(C)C(=O)N(c2ccnc(NC(=O)NCc3ccccn3)c2)c2ccccc21` [Example 58, N-(4-(3,3-dimethyl-2-oxo-2,3-dihydro-1H-indol-1-yl)pyridin-2-yl)-N′-((pyridin-2-yl)methyl)urea], below 100 nM; that for `CC1(C)C(=O)N(c2ccnc(NC(=O)NCc3ccccn3)c2)c2cccnc21` [Example 59, N-(4-(3,3-dimethyl-2-oxo-2,3-dihydro-1H-pyrrolo[3,2-b]pyridin-1-yl)pyridin-2-yl)-N′-(pyridin-2-ylmethyl)urea], below 100 nM.
The result for `Cn1c(=O)n(-c2ccnc(NC(=O)NCc3ccccn3)c2)c2ccccc21` [Example 61, N-(4-(3-methyl-2-oxo-2,3-dihydro-1H-benzimidazol-1-yl)pyridin-2-yl)-N′-(pyridin-2-ylmethyl)urea] reads below 100 nM; that for `O=C(NCc1ccccn1)Nc1cc(-n2c(=O)oc3ccccc32)ccn1` [Example 64, N-(4-(2-oxo-1,3-benzoxazol-3(2H)-yl)pyridin-2-yl)-N′-(pyridin-2-ylmethyl)urea], below 100 nM.
With `Cc1ccc2c(c1)oc(=O)n2-c1ccnc(NC(=O)NCc2ccccn2)c1` [Example 65, 1-(4-(6-methyl-2-oxo-1,3-benzoxazol-3(2H)-yl)pyridin-2-yl)-3-(pyridin-2-ylmethyl)urea] the figure was below 100 nM; with `Cc1ccc2oc(=O)n(-c3ccnc(NC(=O)NCc4ccccn4)c3)c2c1` [Example 66, N-(4-(5-methyl-2-oxo-1,3-benzoxazol-3(2H)-yl)pyridin-2-yl)-N′-(pyridin-2-ylmethyl) urea], below 100 nM; with `O=C(NCc1ccccn1)Nc1cc(NC(=O)c2ccccc2)ccn1` [Example 69, N-(2-(((pyridin-2-ylmethyl)carbamoyl)amino)pyridin-4-yl)benzamide], below 100 nM.
For `O=C(CCc1ccccn1)Nc1cc(N2CC(c3ccccc3)CC2=O)ccn1` (stereo not drawn) [Example 75, N-(4-(2-oxo-4-phenylpyrrolidin-1-yl)pyridin-2-yl)-3-(pyridin-2-yl)propanamide], the IC50 was 220 nM.
The result for `O=C(CCc1ccccn1)Nc1cc(N2CC(c3ccccc3)OC2=O)ccn1` (stereo not drawn) [Example 76, N-(4-(2-oxo-5-phenyl-1,3-oxazolidin-3-yl)pyridin-2-yl)-3-(pyridin-2-yl)propanamide] reads 160 nM; that for `O=C(CCc1cccnc1)Nc1cc(N2CC(c3ccccc3)OC2=O)ccn1` (stereo not drawn) [Example 77, N-(4-(2-oxo-5-phenyl-1,3-oxazolidin-3-yl)pyridin-2-yl)-3-(pyridin-3-yl)propanamide], 190 nM.
